In US11684660B2, “Human PD1 peptide vaccines and uses thereof” (OHIO STATE INNOVATION FOUNDATION, priority 2017, dated 2023):
No end group written: not given here.

What was measured:
[1] = system: Nivolumab; assay: BIACORE SPR binding to immobilized Nivolumab; conditions: 1 μM peptide
Experimental: 1 μM BSA was used as the negative control. The chip was regenerated by 10 mM Glycine-HCl, pH 2.5(FIG. 3E).
1 μM of various PD-1 peptides were injected over the chip for 1 min at 10 μl/min followed by 1 min dissociation and then 1 min regeneration with 10 mM Glycine-HCl, pH 2.5 for each run.

[2] = system: CD4+CD25+FoxP3+ Tregs; assay: Immune-profiling of T cells in spleen and tumor by flow cytometry; format: in vivo, Balb/c mice
Experimental: CD4 and CD8 cells were determined by flow cytometry (gated on CD45+CD3+ cells). Foxp3+CD25+CD4 T regulatory cells were determined by intracellular staining. All CD4 and CD8 T cells were gated on CD45+CD3+ cells. Tregs were gated on CD45+CD3+CD4+ cells. Group A=control peptide, Group B=32-50; Group C=45-64; Group D=73-90; Group E=92-110; Group F=α-mouse PD-1 (positive control).
The tumor and tumor draining lymph nodes were collected for subsequent FACS analysis to study the immune response in mice. Cells suspensions were prepared from tissues either by mechanistic dissociation or by enzymatic digestion. The stained cells were analyzed with a LSR II flow cytometer (BD Biosciences) equipped with 3 excitation lasers at wavelengths 405, 488 and 633 nm. CD8+ T cells and CD4+CD25+ T cells from tumor leucocytes were purified either on a MACS column or FACSAria.
Flow cytometric analysis was performed to evaluate the expression of surface markers (CD45, CD3, CD4, CD8 and CD25) and transcription factor FoxP3 in splenocytes and tumor infiltrating T cells. Briefly, spleens were removed from mice and pressed through cell strainers, followed by a short incubation with red blood cells lysis buffer to lyse the red blood cells. Cells were then collected, washed, and resuspended in staining buffer (1% BSA in PBS). Similarly, tumors were removed from mice and pressed through cell strainers, followed by one wash with 37% percoll. The tumor cells were then washed with PBS and resuspended in staining buffer. The splenocytes and tumor cells were incubated with mAbs to the cell-surface markers for 30 min at 4° C. After washing twice with staining buffer, cells were fixed and permeabilized using Cytofix/Cytoperm solution for 60 min at 4° C. Cells were stained for FoxP3 for 30 min at 4° C. 80,000-100,000 live cell events were acquired on a FACSCanto (BD) and analyzed using FlowJo software (Tree Star, Inc.). To differentiate infiltrating cells from tumor cells, the tumor cells were first gated on CD45+ cells. Then the CD3+CD4+ and CD3+CD8+ cells were analyzed. Tregs were represented by CD4+CD25+FoxP3+ cells. […] Group E had the lowest Treg.

[3] = system: tumor infiltrating lymphocytes; assay: Analysis of tumor infiltrating lymphocytes from peptide-vaccinated mice; format: in vivo, Balb/c mice
Experimental: CD4 (20A) and CD8 (20B) T cells were determined by flow cytometry (gated on CD45+ cells). Foxp3+CD25+CD4 Tregs ([…]) were determined by intracellular staining (gated on CD45+CD4+ cells). […] Group means were calculated and compared with Anova
FIGS. 21A and 21B show Analysis of tumor infiltrating lymphocytes from peptide-vaccinated mice. […] Tumor infiltrating cells were isolated from combined tumor tissue from […] (group A to F) of treated mice in first in vivo experiment. Tumor infiltrating cells were isolated from each mouse in group 5 and 6 from second in vivo experiment. CD4 and CD8 cells were determined by flow cytometry (gated on CD45+ infiltrating cells). FoxP3 expression on CD25+CD4+ T cells were determined by intracellular staining (gated on CD45+CD4+ cells). […] CD4 and CD8 cells were determined by flow cytometry (gated on CD45+ infiltrating cells). FoxP3 expression on CD25+CD4+ T cells were determined by intracellular staining (gated on CD45+CD4+ cells). Group means were calculated and compared with Anova. Error bars denote s.e.m.
On the other hand, high numbers of T cells at the tumor site, especially CD8 T cells, is a key denominator for overall survival (OS) in cancer patients. […] Therefore, it was determined CD8/Treg ratio in TIC in tumor-bearing mice vaccinated with combination peptides or control peptide (described above). […] The cells were then incubated with mAbs to the cell-surface markers (CD45, CD4, CD8, CD25 Then the cells were fixed and permeabilized using Cytofix/Cytoperm solution (ebioscience) for 60 min at 4° C., followed by staining for FoxP3 for 30 min at 4° C. 80,000-100,000 live cell events were acquired on a FACSCantoII (BD) and analyzed using FlowJo software (Tree Star, Inc.). To differentiate TILs from tumor cells, the cells were first gated on CD45^+ cells. Then the CD4^+ (FIG. 20A) and CD8^+ (FIG. 20B) cells were analyzed. Tregs were represented by CD4^+CD25^+FoxP3^+ cells (FIG. 20C). GraphPad software (GraphPad Prism Software, Inc., San Diego, Calif., USA) was utilized for statistical analysis. Group means were calculated and compared with Anova. […]

Substance: KLLSLIKGVIVHRLEGVE-GPSL-GAISLAPKAQIKESLRAEL-CONH2 (KLLSLIKGVIVHRLEGVEGPSLGAISLAPKAQIKESLRAEL-NH2) [MVF-PD-1 (92-110)]
- binding to immobilized Nivolumab (in words) [1]: bind
- SPR response of peptide binding to immobilized Nivolumab ([1]; 1 min at 10 μl/min): 970 RU
- Treg population in spleen compared to Group A (negative control) ([2]; splenocytes, FIG. 10A): increased Treg population
- Tregs in tumor ([2]; tumor infiltrating cells, FIG. 10B): lowest Treg
- CD4 T cells or Treg cells in TILs, differences among groups ([3]; Anova): no significant differences
- CD8+ T cells in TILs compared to control peptide-vaccinated group ([3]; gated on CD45+ cells, Anova): significantly higher
- CD8/Treg ratio in TILs compared to control peptide-vaccinated group ([3]; mouse, in vivo): increased
